Results on five compounds are retold here after patent US10954567B2, “Mutations associated with resistance to inhibitors of Bruton's Tyrosine Kinase (BTK)” (Pharmacyclics LLC, priority 2012, dated 2021).

For one experiment, the system named is CLL cells. Briefly: In vitro stroma-induced CLL proliferation model (BrdU incorporation). The class given is cell-based, human. To be noted: BTK-mutated (C481S) CLL cells, FIG. 3C, untreated 31%. In general terms: Dividing cells build labelled thymidine or BrdU into new DNA.
Another experiment deals with CML. To be noted: cited from earlier work.

Read-outs that look alike come from different tables or passages of the source.

On to `CC[C@H](Nc1ncnc2[nH]cnc12)c1nc2cccc(F)c2c(=O)n1-c1ccccc1` [GS-1101], for which the proliferation in the experiment on CLL cells is 14%.
Consider `Cc1cccc(Nc2nc(N[C@@H]3CCCC[C@@H]3N)ncc2C(N)=O)c1` [PRT060318], for which the “proliferation (in words)” value in the experiment on CLL cells is recorded as “complete inhibition of proliferation”.
Same read-out and setting: in the case of `CCS(=O)(=O)N1CCN(c2ccc(Nc3ncc(C(N)=O)c(NC4CC4)n3)cc2)CC1` [PRT062070] it was “complete inhibition of proliferation”.
Turning to `Cc1ccc(NC(=O)c2ccc(CN3CCN(C)CC3)cc2)cc1Nc1nccc(-c2cccnc2)n1` [imatinib], the patients who relapse in the experiment on CML (advanced CML) is listed as 66%; in the experiment with CML (chronic CML, within the first few years) it was 5%.
In the experiment on CLL cells, `C[C@@H]1CCN(C(=O)CC#N)C[C@@H]1N(C)c1ncnc2[nH]ccc12` [tofacitinib] came in with a proliferation of 21%.
